Experimental data as given in patent US8497298B2, “Use of benzo-fused heterocycle sulfamide derivatives for lowering lipids and lowering blood glucose levels” (Janssen Pharmaceutica NV, priority 2005, dated 2013).

Test system: Zucker diabetic fatty (ZDF Gmi-fa/fa) rats
Assay: Zucker Diabetic Fatty Rats Assay, Study B: basal glucose and Day 8 plasma parameters (Example 15)
Format: in vivo, rat
Conditions: for Basal glucose levels Day 4: Day 4, 2 hour fasted; for Basal glucose levels Day 4 / Basal glucose levels Day 6 / Basal glucose levels Day 0: in mg/dL; for Basal glucose levels Day 6: Day 6, 2 hour fasted; for Cholesterol / HDL / Insulin / Ratio (Triglyceride to HDL) / Triglyceride: Day 8 plasma; for Basal glucose levels Day 0: female ZDF rats
Method: Compound #8 was suspended in 0.5% Methocel using a hand held homogenizer to reduce the particle size and a magnetic stir bar and stir plate to keep the particles homogeneously suspended throughout the dosing period. 0.5% Hydroxypropyl Methylcellulose (Methocel) used as vehicle/control. Compound #8 was tested in both diabetic models of mouse and rat.
In this study, female Zucker diabetic fatty (ZDF Gmi-fa/fa) rats were selected for glucose lowering effect and oral glucose tolerance test (OGTT) studies. ZDF rats from (Charles River Laboratories, Wilmington, Mass.) at 7 weeks of age were individually housed and fed with C13004 diet (obtained from Research Diets, New Brunswick, N.J.). All of the rats were quarantined for a period of one week before transfer to the animal procedure room. A drop of blood (about 2 microliters) was collected by tail puncture and glucose concentration was detected with a glucometer (OneTouch UltraSmart, Lifescan, Milpitas, Calif.).
ZDF rats at 8 weeks of age were randomized into four treatment groups based on glucose values (first criterion, average of 150 mg/dL) and body weight (second criterion, average of 240 g). 32 rats were allocated into 4 treatment groups of 8 rats each. The four groups were then treated with 0.5% Methocel (vehicle), 10 mg/kg Compound #8, 30 mg/kg Compound #8, and 100 mg/kg Compound #8 in vehicle, respectively.
The rats were orally gavaged once daily (at 1500-1700 hour) with vehicle control (0.5% Methocel, pH7.4) or vehicle containing Compound #8 for 7 days. The dosing volume was 5 mL/kg body weight (1.2 mL for 250 gram rat). The rats were fed ad lib throughout the study.
Basal glucose levels after treatments were measured on Day 4 and Day 6 in 2 hour fasted rats with a glucometer (OneTouch UltraSmart, Lifescan, Milpitas, Calif.) after collecting two microliters of blood through tail puncture. Oral Glucose Tolerance Test (OGTT) was performed on Day 7 in 4 hour-fasted rats. Two hours after being dosed with Compound #8 or vehicle, the rats were gavaged with a 2g/kg of 50% glucose solution right after basal glucose levels measurement (0 minute). Blood glucose levels were then measured at 30, 60, 90 and 120 minutes through tail puncture.
On Day 8, rats were anaesthetized with sodium pentobarbital (1 ml/kg, intraperitoneal [i.p.] injection, SleepAway, Fort Dodge, Iowa) and blood was drawn via cardiac puncture using 3 mL syringe and collected into heparinized tubes. Plasma samples were obtained by centrifuging whole blood at 2000˜3000 g for 10˜20 minutes at 4° C. and stored at −20° C. for further measurement of insulin, HDL, total cholesterol and triglyceride.
Plasma insulin concentrations were measured by in both studies using the appropriate rat/mouse insulin enzyme-linked immunosorbent assay (ELISA) kit (EZRMI-13K, LINCO Research, St. Charles, Mo.). Blood samples were diluted 1:4 in charcoal stripped mouse serum that was included in the ELISA kit. The rest of the procedure followed the manufacturers instruction. The total fluorescence was detected using an Orion 1 Microplate Luminometer (Berthold Detection Systems, Pforzheim, Germany).
Plasma total cholesterol, high density lipoprotein (HDL), low density lipoprotein (LDL) and triglyceride concentrations were measured by using a Bayer ADVIA 1650 blood chemistry analyzer (Bayer HealthCare LLC, Diagnostic Division, Tarrytown, N.Y.). According to manufacturers protocol, cholesterol measurement was an enzymatic method utilizing cholesterol esterase and cholesterol oxidase conversion followed by a Trinder endpoint; Elimination/catalase method was used for HDL measurement; an enzymatic method with a Trinder endpoint was used for triglyceride measurement.
Data from this study was analyzed using the standard two-tailed Student's t-test and are expressed below as means and standard errors.

NS(=O)(=O)NC[C@H]1COc2cc(Cl)ccc2O1 [Compound #8, (2S)-(−)-N-(6-Chloro-2,3-dihydro-benzo[1,4]dioxin-2-ylmethyl)-sulfamide]
Basal glucose levels Day 4 (10 mg/kg oral once daily): 148 ± 15
Basal glucose levels Day 6 (10 mg/kg oral once daily): 190 ± 28
Cholesterol (10 mg/kg): 142 ± 6 mg/dL
HDL (10 mg/kg): 36 ± 1.0 mg/dL
Insulin (10 mg/kg): 16 ± 1.0 ng/mL
Ratio (Triglyceride to HDL) (10 mg/kg): 37 ± 3
Triglyceride (10 mg/kg): 1323 ± 124 mg/dL
Basal glucose levels Day 4 (30 mg/kg oral once daily): 146 ± 9
Basal glucose levels Day 6 (30 mg/kg oral once daily): 151 ± 11
Cholesterol (30 mg/kg): 144 ± 11 mg/dL
HDL (30 mg/kg): 36 ± 1.1 mg/dL
Insulin (30 mg/kg): 14 ± 1.1 ng/mL
Ratio (Triglyceride to HDL) (30 mg/kg): 39 ± 7
Triglyceride (30 mg/kg): 1383 ± 254 mg/dL
Basal glucose levels Day 4 (100 mg/kg oral once daily): 125 ± 4
Basal glucose levels Day 6 (100 mg/kg oral once daily): 134 ± 5
plasma insulin decreased (100 mg/kg, Day 8): 32%
ratio of triglyceride to HDL reduced (100 mg/kg, Day 8): 59%
Cholesterol (100 mg/kg): 134 ± 7 mg/dL
HDL (100 mg/kg): 41 ± 2.2 mg/dL
Insulin (100 mg/kg): 8.8 ± 1.2 ng/mL
Ratio (Triglyceride to HDL) (100 mg/kg): 19 ± 3
Triglyceride (100 mg/kg): 776 ± 119 mg/dL
food intake and weight loss (any of the groups (10, 30, 100 mg/kg)): No reduction in food intake reduction or weight loss
Basal glucose levels Day 0 (10 mg/kg group): 153 ± 13
Basal glucose levels Day 0 (30 mg/kg group): 152 ± 11
Basal glucose levels Day 0 (100 mg/kg group): 147 ± 7
